From patent US8012963B2, “3,4-dihydro-2H-benzo[1,4]oxazine and thiazine derivatives as CETP inhibitors” (Janssen Pharmaceutica N.V., priority 2006, dated 2011) come the findings set out here.

Molecules are shown by their SMILES. Several values for one entry are separate records, joined by “and”; a condition that tells them apart may be missing. Identical values can stand only once.

In this assay the target is T1, CETP (Homo sapiens, UniProt P11597).
T1 construct: from tissue; host or cells: human plasma from normal volunteers
T1 sequence (P11597 18-493): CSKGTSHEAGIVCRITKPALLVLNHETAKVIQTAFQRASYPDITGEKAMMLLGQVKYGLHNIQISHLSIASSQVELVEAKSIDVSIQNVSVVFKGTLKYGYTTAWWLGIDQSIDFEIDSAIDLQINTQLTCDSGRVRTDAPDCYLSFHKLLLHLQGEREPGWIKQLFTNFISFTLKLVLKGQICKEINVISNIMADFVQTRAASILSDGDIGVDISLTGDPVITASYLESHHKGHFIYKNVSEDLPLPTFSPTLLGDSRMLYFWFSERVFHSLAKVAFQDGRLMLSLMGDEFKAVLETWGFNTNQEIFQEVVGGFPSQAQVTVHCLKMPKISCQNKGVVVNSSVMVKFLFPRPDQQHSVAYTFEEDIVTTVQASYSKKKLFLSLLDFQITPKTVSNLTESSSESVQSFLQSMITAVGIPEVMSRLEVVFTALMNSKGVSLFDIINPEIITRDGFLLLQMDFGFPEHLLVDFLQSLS
Briefly: CETP in vitro assay ([3H]CE-HDL transfer, Amersham kit TRKQ7005; modified protocol in human plasma). To be noted: multiple values = multiple measurements; for inhibition at 1 µM / % Inhibition @ 1 μM: 1 μM compound. It is filed as biochemical. The procedure:
The CETP inhibitory activity of the compounds was determined using a commercially available kit from Amersham Biosciences (Catalog #TRKQ7005).
For the measurement of inhibitory activity in human plasma, a modified protocol (Connolly, D. T. et al., Biochemistry, 39 13870-13879, 2000) was used. Briefly, 80 μl of human plasma (obtained from normal volunteers), approximately 25 μg/ml (200) of [^3H]CE-HDL (Amersham Biosciences from kit TRKQ7005) and 1 μl of compound dissolved in DMSO was incubated for at least 4 hrs at 37° C. and non-specific transfer was determined by incubating a corresponding plate at 4° C. (blank). After the incubation period, 100 of a solution of 1% Dextralip 50/0.5M MgCl2, pH 7.4 was added, vortexed and incubated at room temperature for 10 min. The plate was then centrifuged for 30 min at 10° C. at 3000 rpm in a Sorvall RT6000B centrifuge. Fifty microliters of the supernatant was transferred to a Picoplate (Packard) containing 100 μl of Microscint 40 (Perkin Elmer) and mixed for 30 min using a plate mixer. The radioactivity was counted using a TopCount (Perkin Elmer) and the % control was determined in the samples using the following formula: % transfer relative to vehicle controls (% control)=[cpm blank-cpm test]/cpm blank/cpm control]×100. IC50s were calculated from plots of the % control versus compound concentration.
A variety of example compounds have been made and tested, with a range of in vitro results. Below, in Table 2, are representative compounds and the corresponding data; in some cases, where multiple IC50's are shown, multiple measurements were taken. Naturally, different compounds in Formula (I), (Ia), (Ib) and (Ic) may have not activities identical to any one compound below.

For `FC(F)C(F)(F)Oc1cccc(C2COc3c(-c4cccc(OC(F)(F)F)c4)cccc3N2CCN2CCNCC2)c1` (stereo not drawn) [Compound 30, 4-(2-piperazin-1-yl-ethyl)-3-[3-(1,1,2,2-tetrafluoro-ethoxy)-phenyl]-8-(3-trifluoromethoxy-phenyl)-3,4-dihydro-2H-benzo[1,4]oxazine], testing at 1 µM gave an inhibition of 0%.

As for `COc1cccc(C2COc3c(-c4cccc(OC(F)(F)F)c4)cccc3N2CC(O)C(F)(F)F)c1` (stereo not drawn) [Compound 100, 1,1,1-Trifluoro-3-[3-(3-methoxy-phenyl)-8-(3-trifluoromethoxy-phenyl)-2,3-dihydro-benzo[1,4]oxazin-4-yl]-propan-2-ol], the “% Inhibition @ 1 μM” value came out at 6%.

With `OCCCN1c2cccc(-c3cccc(OC(F)(F)F)c3)c2OCC1c1cccc(OC(F)(F)C(F)F)c1` (stereo not drawn) [Compound 26, 3-[3-[3-(1,1,2,2-Tetrafluoro-ethoxy)-phenyl]-8-(3-trifluoromethoxy-phenyl)-2,3-dihydro-benzo[1,4]oxazin-4-yl]-propan-1-ol], the inhibition (commonly the share of the control response that was lost under treatment) at 1 µM amounted to 10%.

In the case of `OC(CN1c2cccc(-c3cccc(OC(F)(F)F)c3)c2OCC1c1ccc2c(c1)OC(F)(F)O2)C(F)(F)F` (stereo not drawn) [Compound 13, 3-[3-(2,2-Difluoro-benzo[1,3]dioxol-5-yl)-8-(3-trifluoromethoxy-phenyl)-2,3-dihydro-benzo[1,4]oxazin-4-yl]-1,1,1-trifluoro-propan-2-ol], the inhibition at 1 µM came to 48%; the IC50 (in general, the concentration that inhibits the measured activity by half) is 104 nM and 437 nM.

With `Cc1ccsc1C1COc2c(-c3cccc(OC(F)(F)F)c3)cccc2N1CC(O)C(F)(F)F` (stereo not drawn) [Compound 86, 1,1,1-Trifluoro-3-[3-(3-methyl-thiophen-2-yl)-8-(3-trifluoromethoxy-phenyl)-2,3-dihydro-benzo[1,4]oxazin-4-yl]-propan-2-ol], the “% Inhibition @ 1 μM” value is listed as 2%.

On to `OC(CN1c2cccc(-c3cccc(OC(F)(F)F)c3)c2OCC1c1cccc(SC(F)(F)F)c1)C(F)(F)F` (stereo not drawn) [Compound 15], for which the “% Inhibition @ 1 μM” value was 67% and 69%; the IC50 was found to be 360 nM.

For `OC(CN1c2cccc(-c3cccc(OC(F)(F)F)c3)c2OCC1c1cccc(C(F)(F)F)c1)C(F)(F)F` (stereo not drawn) [Compound 71, 1,1,1-Trifluoro-3-[8-(3-trifluoromethoxy-phenyl)-3-(3-trifluoromethyl-phenyl)-2,3-dihydro-benzo[1,4]oxazin-4-yl]-propan-2-ol], the “% Inhibition @ 1 μM” value is given as 2%.

`O[C@@H](CN1c2cccc(-c3cc(F)cc(F)c3)c2OC[C@@H]1c1cccc(OC(F)(F)C(F)F)c1)C(F)(F)F` [Compound 72, 4H-1,4-Benzoxazine-4-ethanol, 8-(3,5-difluorophenyl)-2,3-dihydro-3-[3-(1,1,2,2-tetrafluoroethoxy)phenyl]-α-(trifluoromethyl)-, (3S,αS)—] had an inhibition at 1 µM of 100% and an IC50 of 50 nM.

For the compound `CCOc1cccc(C2COc3c(-c4cccc(OC(F)(F)F)c4)cccc3N2CC(O)C(F)(F)F)c1` (stereo not drawn) [Compound 18], the “% Inhibition @ 1 μM” value came out at 8%.

Take `OC[C@@H](O)CN1c2cccc(-c3cccc(OC(F)(F)F)c3)c2OC[C@@H]1c1cccc(OC(F)(F)C(F)F)c1` [Compound 47, 1,2-Propanediol, 3-[(3S)-2,3-dihydro-3-[3-(1,1,2,2-tetrafluoroethoxy)phenyl]-8-[3-(trifluoromethoxy)phenyl]-4H-1,4-benzoxazin-4-yl]-, (2S)—]: the inhibition at 1 µM was determined as 27%.

With `COc1ccc(C2COc3c(-c4cccc(OC(F)(F)F)c4)cccc3N2CC(O)C(F)(F)F)s1` (stereo not drawn) [Compound 63, 1,1,1-Trifluoro-3-[3-(5-methoxy-thiophen-2-yl)-8-(3-trifluoromethoxy-phenyl)-2,3-dihydro-benzo[1,4]oxazin-4-yl]-propan-2-ol], the “% Inhibition @ 1 μM” value is given as 17%.

Turning to `OC[C@@H](O)CN1c2cccc(-c3cccc(OC(F)(F)F)c3)c2OC[C@H]1c1cccc(OC(F)(F)C(F)F)c1` [Compound 48, 1,2-Propanediol, 3-[(3R)-2,3-dihydro-3-[3-(1,1,2,2-tetrafluoroethoxy)phenyl]-8-[3-(trifluoromethoxy)phenyl]-4H-1,4-benzoxazin-4-yl]-, (2S)—], the inhibition at 1 µM stood at 13%.

On to `NCCN1c2cccc(-c3cccc(OC(F)(F)F)c3)c2OCC1c1cccc(OC(F)(F)C(F)F)c1` (stereo not drawn) [Compound 39, 2-[3-[3-(1,1,2,2-Tetrafluoro-ethoxy)-phenyl]-8-(3-trifluoromethoxy-phenyl)-2,3-dihydro-benzo[1,4]oxazin-4-yl]-ethylamine], for which the inhibition at 1 µM stood at 2%.

Take `OC(CF)CN1c2cccc(-c3cccc(OC(F)(F)F)c3)c2OCC1c1cccc(OC(F)(F)C(F)F)c1` (stereo not drawn) [Compound 68, 1-Fluoro-3-[3-[3-(1,1,2,2-tetrafluoro-ethoxy)-phenyl]-8-(3-trifluoromethoxy-phenyl)-2,3-dihydro-benzo[1,4]oxazin-4-yl]-propan-2-ol]: the “% Inhibition @ 1 μM” value was 79% and 91%; the IC50 is 127 nM.

With `OC(CN1c2cccc(-c3cccc(OC(F)(F)F)c3)c2OCC1c1ccco1)C(F)(F)F` (stereo not drawn) [Compound 89, 1,1,1-Trifluoro-3-[3-furan-2-yl-8-(3-trifluoromethoxy-phenyl)-2,3-dihydro-benzo[1,4]oxazin-4-yl]-propan-2-ol], the inhibition at 1 µM was 17%.

As to `CC(C)(O)CN1c2cccc(-c3cccc(OC(F)(F)F)c3)c2OCC1c1cccc(OC(F)(F)C(F)F)c1` (stereo not drawn) [Compound 49, 2-Methyl-1-[3-[3-(1,1,2,2-tetrafluoro-ethoxy)-phenyl]-8-(3-trifluoromethoxy-phenyl)-2,3-dihydro-benzo[1,4]oxazin-4-yl]-propan-2-ol], the inhibition at 1 µM was determined as 34%, the “% Inhibition @ 1 μM” value is 24% and inhibition was half-maximal at 560 nM (IC50).

Regarding `OC(CN1c2cccc(-c3cccc(OC(F)(F)F)c3)c2OCC1c1cccc(SC(F)(F)F)c1)C(F)(F)F` (stereo not drawn) [Compound 16, 1,1,1-Trifluoro-3-[8-(3-trifluoromethoxy-phenyl)-3-(3-trifluoromethylsulfanyl-phenyl)-2,3-dihydro-benzo[1,4]oxazin-4-yl]-propan-2-ol], the “% Inhibition @ 1 μM” value stood at 20%.

Regarding `CC(C)(C)C(=O)CC1COc2c(-c3cccc(OC(F)(F)F)c3)cccc2N1CC(O)C(F)(F)F` (stereo not drawn) [Compound 57, 3,3-Dimethyl-1-[4-(3,3,3-trifluoro-2-hydroxy-propyl)-8-(3-trifluoromethoxy-phenyl)-3,4-dihydro-2H-benzo[1,4]oxazin-3-yl]-butan-2-one], the “% Inhibition @ 1 μM” value is 0%.

In turn, `FC(F)C(F)(F)Oc1cccc(C2COc3c(-c4cccc(OC(F)(F)F)c4)cccc3N2CCN2CCOCC2)c1` (stereo not drawn) [Compound 29, 4-(2-Morpholin-4-yl-ethyl)-3-[3-(1,1,2,2-tetrafluoro-ethoxy)-phenyl]-8-(3-trifluoromethoxy-phenyl)-3,4-dihydro-2H-benzo[1,4]oxazine] yielded an inhibition at 1 µM of 0%.

Turning to `OC(CN1c2cccc(-c3cccc(OC(F)(F)F)c3)c2OCC1c1ccccc1OC(F)(F)C(F)F)C(F)(F)F` (stereo not drawn) [Compound 91, 1,1,1-Trifluoro-3-[3-[2-(1,1,2,2-tetrafluoro-ethoxy)-phenyl]-8-(3-trifluoromethoxy-phenyl)-2,3-dihydro-benzo[1,4]oxazin-4-yl]-propan-2-ol], the “% Inhibition @ 1 μM” value is given as 6%.

Take `CCc1ccc(C2COc3c(-c4cccc(OC(F)(F)F)c4)cccc3N2CC(O)C(F)(F)F)s1` (stereo not drawn) [Compound 59, 3-[3-(5-Ethyl-thiophen-2-yl)-8-(3-trifluoromethoxy-phenyl)-2,3-dihydro-benzo[1,4]oxazin-4-yl]-1,1,1-trifluoro-propan-2-ol]: the “% Inhibition @ 1 μM” value was found to be 0%.
